This assay addresses T1, recombinant human MMP13 catalytic domain (CD) (Homo sapiens, UniProt P45452).
T1 construct: catalytic domain (CD) construct encompassing residues 20-274 (SWISS-PROT P45452); made in house
Nature of the assay: MMP-13 catalytic domain FRET enzyme assay. The assay is classed as biochemical. The note with it: recombinant human MMP-13 catalytic domain. The essentials: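 Human MMP-13 catalytic domain (res 20-274, E. coli-expressed), 0.4 nM, cleaving FRET peptide (0.25 μM) in Tris pH 7.5/CaCl2/NaCl/Brij 35, 5% DMSO, 60 min RT; EDTA-quenched, fluorescence 485/535 nm. IC50 from sigmoidal fit of % inhibition. Some compounds also run on APMA-activated full-length MMP13 (2 nM).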

SMILES strings stand for the structures. A value given as a limit tells only on which side of the number the result lay.

What is called IC50 is the midpoint of a concentration-inhibition curve.

Take `COc1ccc(CNC(=O)c2cc(C3=NOC(c4ccc(OCCO)cc4)C3)nc(C)n2)cc1` (stereo not shown): the half-inhibitory concentration (IC50) lay within 10 to 100 nM.

In the case of `COc1cc(CNC(=O)c2cc(C3=NOC(c4ccc(CN5CCOCC5)cc4)C3)nc(C)n2)ccc1F` (stereo not shown), the IC50 was in the range of 10 to 100 nM.

For the compound `COc1ccc(CNC(=O)c2cc(C3=NOC(c4nn[nH]n4)C3)nc(C)n2)cc1` (stereo not shown), the IC50 is > 1000 nM.

As to `COc1cc(CNC(=O)c2cc(C3=NOC(c4ccc(CN5CCSCC5)cc4)C3)nc(C)n2)ccc1F` (stereo not shown), the IC50 was < 10 nM.

As for `COc1cc(CNC(=O)c2cc(C3=NOC(c4cccc(C(N)=O)c4)C3)nc(C)n2)ccc1F` (stereo not shown), the IC50 was < 10 nM.

For `COc1cc(CNC(=O)c2cc(C3=NOC(c4cccc(CN5CCOCC5)c4)C3)nc(C)n2)ccc1F` (stereo not shown), the IC50 is < 10 nM.

For `CNC(=O)c1cccc(C2CC(c3cc(C(=O)NCc4ccc(F)c(OC)c4)nc(C)n3)=NO2)c1` (stereo not shown), the IC50 lay within 10 to 100 nM.

With `CNC(=O)c1ccc(C2CC(c3cc(C(=O)NCc4ccc(F)c(OC)c4)nc(C)n3)=NO2)cc1` (stereo not shown), the IC50 was < 10 nM.

For the compound `COC[C@@H]1CO[C@@H]([C@H]2CC(c3cc(C(=O)NCc4ccc(F)c(OC)c4)nc(C)n3)=NO2)CO1`, the IC50 is > 1000 nM.

`COc1cc(CNC(=O)c2cc(C3=NO[C@H]([C@H]4CO[C@H](CNC(=O)[C@H](C)O)CO4)C3)nc(C)n2)ccc1F`: the IC50 is < 10 nM.

`Cc1nc(C(=O)NCc2ccc(F)c(C)c2)cc(C2=NOC([C@H]3CC[C@H](NC(=O)[C@H](C)O)CC3)C2)n1` (stereo partly shown): the IC50 was < 10 nM.

For the compound `Cc1nc(C(=O)NCc2ccc3c(c2)OCCO3)cc(C2=NO[C@H]([C@H]3CO[C@H](CO)CO3)C2)n1`, the IC50 lay in the range of 10 to 100 nM.

In the case of `Cc1nc(C(=O)NCc2ccc3c(c2)OCCO3)cc(C2=NO[C@@H]([C@H]3CO[C@H](CO)CO3)C2)n1`, the IC50 is > 1000 nM.

As for `Cc1nc(C(=O)NCc2ccc(F)cc2)cc(C2=NOC([C@H]3CC[C@H](NC(=O)[C@H](C)O)CC3)C2)n1` (stereo partly shown), the IC50 was 10 to 100 nM.

With `Cc1nc(C(=O)NCc2ccc3c(c2)NC(=O)CO3)cc(C2=NO[C@H]([C@H]3CO[C@H](CO)CO3)C2)n1`, the IC50 was < 10 nM.

Regarding `Cc1nc(C(=O)NCc2ccc3c(c2)NC(=O)CO3)cc(C2=NO[C@@H]([C@H]3CO[C@H](CO)CO3)C2)n1`, the IC50 lay in the range of 10 to 100 nM.

As to `COc1cc(CNC(=O)c2cc(C3=NOC(c4ccn(C)c(=O)c4)C3)nc(C)n2)ccc1F` (stereo not shown), the IC50 was 10 to 100 nM.

In the case of `COc1cc(CNC(=O)c2cc(C3=NOC(c4ccc(=O)n(C5CC5)c4)C3)nc(C)n2)ccc1F` (stereo not shown), the IC50 is < 10 nM.

`COc1cc(CNC(=O)c2cc(C3=NOC(c4ccc(=O)n(C)n4)C3)nc(C)n2)ccc1F` (stereo not shown): the IC50 lay in the range of 10 to 100 nM.

Regarding `COc1ccc(CNC(=O)c2cc(C3CC(c4ccc(OCCO)cc4)=NO3)nc(C)n2)cc1` (stereo not shown), the IC50 fell in the range of 10 to 100 nM.

For `COc1cc(CNC(=O)c2cc(C3CC(c4ccccc4)=NO3)nc(C)n2)ccc1F` (stereo not shown), the half-maximal inhibitory concentration (IC50) lay in the range of 10 to 100 nM.

On to `COc1cc(CNC(=O)c2cc(C3CC(c4ccc(OCCO)cc4)=NO3)nc(C)n2)ccc1F` (stereo not shown), for which the IC50 lay within 10 to 100 nM.

On to `COc1ccc(CNC(=O)c2cc(C3CC(c4ccccc4)=NO3)nc(C)n2)cc1` (stereo not shown), for which the IC50 was in the range of 100 to 1000 nM.

As for `COc1cc(CNC(=O)c2cc(C3=NO[C@H](C4CCN(C(=O)CO)CC4)C3)nc(C)n2)ccc1F`, the IC50 is < 10 nM.

Consider `COc1cc(CNC(=O)c2cc(C3=NO[C@@H](C4CCN(C(=O)CO)CC4)C3)nc(C)n2)ccc1F`, for which the IC50 was 10 to 100 nM.

Turning to `COc1ccc(CNC(=O)c2cc(C3=NO[C@H](c4ccc(OCCO)cc4)C3)nc(C)n2)cc1`, the half-inhibitory concentration (IC50) is < 10 nM.

Turning to `COc1ccc(CNC(=O)c2cc(C3=NO[C@@H](c4ccc(OCCO)cc4)C3)nc(C)n2)cc1`, the half-maximal inhibitory concentration (IC50) is 10 to 100 nM.

Consider `COc1cc(CNC(=O)c2cc(C3=NO[C@H](c4ccc(CO)cc4)C3)nc(C)n2)ccc1F`, for which the IC50 is > 1000 nM.

With `COc1cc(CNC(=O)c2cc(C3=NO[C@@H](c4ccc(CO)cc4)C3)nc(C)n2)ccc1F`, the IC50 was < 10 nM.

Take `CC(=O)N[C@H]1CC[C@H]([C@@H]2CC(c3cc(C(=O)NCc4ccc(F)c(C)c4)nc(C)n3)=NO2)CC1`: the concentration for half-maximal inhibition (IC50) was < 10 nM.

For the compound `CC(=O)N[C@H]1CC[C@H]([C@H]2CC(c3cc(C(=O)NCc4ccc(F)c(C)c4)nc(C)n3)=NO2)CC1`, the IC50 was 10 to 100 nM.

Turning to `COc1cc(CNC(=O)c2cc(C3=NO[C@H]([C@H]4CC[C@H](NC(=O)[C@H](C)O)CC4)C3)nc(C)n2)ccc1F`, the IC50 is < 10 nM.

Regarding `COc1cc(CNC(=O)c2cc(C3=NO[C@@H]([C@H]4CC[C@H](NC(=O)[C@H](C)O)CC4)C3)nc(C)n2)ccc1F`, the IC50 lay in the range of 10 to 100 nM.

With `Cc1nc(C(=O)NCc2ccc(F)c(C)c2)cc(C2=NO[C@H]([C@H]3CC[C@H](NC(=O)[C@H](C)O)CC3)C2)n1`, the half-maximal inhibitory concentration (IC50) was < 10 nM.

On to `Cc1nc(C(=O)NCc2ccc(F)c(C)c2)cc(C2=NO[C@@H]([C@H]3CC[C@H](NC(=O)[C@H](C)O)CC3)C2)n1`, for which the IC50 is 10 to 100 nM.

Consider `Cc1nc(C(=O)NCc2ccc(F)c(Cl)c2)cc(C2=NO[C@H]([C@H]3CC[C@H](NC(=O)[C@H](C)O)CC3)C2)n1`, for which the IC50 is < 10 nM.

On to `Cc1nc(C(=O)NCc2ccc(F)c(Cl)c2)cc(C2=NO[C@@H]([C@H]3CC[C@H](NC(=O)[C@H](C)O)CC3)C2)n1`, for which the IC50 was in the range of 10 to 100 nM.

As for `COc1cc(CNC(=O)c2cc(C3=NO[C@H](c4ccc(=O)n(C)c4)C3)nc(C)n2)ccc1F`, the IC50 was < 10 nM.

For the compound `COc1cc(CNC(=O)c2cc(C3=NO[C@@H](c4ccc(=O)n(C)c4)C3)nc(C)n2)ccc1F`, the IC50 lay within 100 to 1000 nM.

For `CC(=O)N[C@H]1CC[C@H](C2CC(c3cc(C(=O)NCc4ccncc4)nc(C)n3)=NO2)CC1` (stereo partly shown), the IC50 was in the range of 10 to 100 nM.

In the case of `Cc1nc(C(=O)NCc2ccncc2)cc(C2=NO[C@H]([C@H]3CO[C@H](CO)CO3)C2)n1`, the IC50 was 10 to 100 nM.

For `Cc1nc(C(=O)NCc2ccncc2)cc(C2=NO[C@@H]([C@H]3CO[C@H](CO)CO3)C2)n1`, the IC50 is > 1000 nM.

With `CC(=O)N[C@H]1CC[C@H](C2CC(c3cc(C(=O)NCc4ccn(C)c(=O)c4)nc(C)n3)=NO2)CC1` (stereo partly shown), the IC50 was > 1000 nM.

Take `CC(=O)N[C@H]1CC[C@H](C2CC(c3cc(C(=O)NCc4ccc5c(c4)NC(=O)CO5)nc(C)n3)=NO2)CC1` (stereo partly shown): the IC50 was < 10 nM.

On to `COc1cc([C@@H](C)NC(=O)c2cc(C3=NOC(c4ccccc4)C3)nc(C)n2)ccc1F` (stereo partly shown), for which the IC50 is > 1000 nM.

In the case of `COc1cc([C@H](C)NC(=O)c2cc(C3=NOC(c4ccccc4)C3)nc(C)n2)ccc1F` (stereo partly shown), the IC50 was > 1000 nM.

On to `COc1cc(CNC(=O)c2cc(C3=NOC(C4CCN(C(C)=O)CC4)C3)nc(C)n2)ccc1F` (stereo not shown), for which the IC50 fell in the range of 10 to 100 nM.

As for `COc1cc(CNC(=O)c2cc(C3=NOC(C4CCN(S(C)(=O)=O)CC4)C3)nc(C)n2)ccc1F` (stereo not shown), the IC50 is < 10 nM.

In the case of `COc1cc(CNC(=O)c2cc(C3=NOC(C4CCN(C(=O)CO)CC4)C3)nc(C)n2)ccc1F` (stereo not shown), the IC50 lay within 10 to 100 nM.

As for `COc1cc(CNC(=O)c2cc(C3=NO[C@@H]([C@@H]4CO[C@@H](CO)CO4)C3)nc(C)n2)ccc1F`, the IC50 was 100 to 1000 nM.

Take `COc1cc(CNC(=O)c2cc(C3=NO[C@H]([C@@H]4CO[C@@H](CO)CO4)C3)nc(C)n2)ccc1F`: the IC50 is 10 to 100 nM.

`COc1cc(CNC(=O)c2cc(C3=NO[C@H]([C@H]4CO[C@H](CO)CO4)C3)nc(C)n2)ccc1F`: the IC50 was < 10 nM.

In the case of `COc1cc(CNC(=O)c2cc(C3=NOC(c4ccc(C(N)=O)cc4)C3)nc(C)n2)ccc1F` (stereo not shown), the IC50 was < 10 nM.

For the compound `COc1cc(CNC(=O)c2cc(C3=NOC(C(=O)N4CCOCC4)C3)nc(C)n2)ccc1F` (stereo not shown), the IC50 was > 1000 nM.

With `COc1cc(CNC(=O)c2cc(C3=NOC(c4ccnc(C(C)(C)O)c4)C3)nc(C)n2)ccc1F` (stereo not shown), the 50% inhibitory concentration (IC50) was 10 to 100 nM.

`COc1cc(CNC(=O)c2cc(C3=NOC(c4nn[nH]n4)C3)nc(C)n2)ccc1F` (stereo not shown): the IC50 was > 1000 nM.

`COc1cc(CNC(=O)c2cc(C3=NOC(C4CCN(C(=O)CS(C)(=O)=O)CC4)C3)nc(C)n2)ccc1F` (stereo not shown): the IC50 lay in the range of 10 to 100 nM.

For `COc1cc(CNC(=O)c2cc(C3=NOC(C4CCN(C(=O)Nc5ccon5)CC4)C3)nc(C)n2)ccc1F` (stereo not shown), the 50% inhibitory concentration (IC50) lay in the range of 10 to 100 nM.

Consider `CNC(=O)N1CCC(C2CC(c3cc(C(=O)NCc4ccc(F)c(OC)c4)nc(C)n3)=NO2)CC1` (stereo not shown), for which the IC50 is < 10 nM.

As to `COc1cc(CNC(=O)c2cc(C3=NO[C@H]([C@H]4CO[C@H](CC#N)CO4)C3)nc(C)n2)ccc1F`, the IC50 is < 10 nM.

On to `COc1cc(CNC(=O)c2cc(C3=NO[C@H]([C@H]4CO[C@H](CS(C)(=O)=O)CO4)C3)nc(C)n2)ccc1F`, for which the IC50 was 10 to 100 nM.

Take `COc1cc(CNC(=O)c2cc(C3=NO[C@H]([C@H]4CO[C@H](C(=O)O)CO4)C3)nc(C)n2)ccc1F`: the IC50 was < 10 nM.

Regarding `COc1cc(CNC(=O)c2cc(C3=NOC(CN4CCOCC4)C3)nc(C)n2)ccc1F` (stereo not shown), the IC50 is > 1000 nM.

Consider `COc1cc(CNC(=O)c2cc(C3=NO[C@H]([C@H]4CO[C@H](C(N)=O)CO4)C3)nc(C)n2)ccc1F`, for which the IC50 was < 10 nM.

For `COc1cc(CNC(=O)c2cc(C3=NOC(c4c[nH]cn4)C3)nc(C)n2)ccc1F` (stereo not shown), the IC50 is > 1000 nM.

As for `COc1cc(CNC(=O)c2cc(C3=NOC([C@H]4CC[C@H](NC(=O)CC#N)CC4)C3)nc(C)n2)ccc1F` (stereo partly shown), the IC50 is < 10 nM.

In the case of `COc1cc(CNC(=O)c2cc(C3=NOC([C@H]4CC[C@H](NS(N)(=O)=O)CC4)C3)nc(C)n2)ccc1F` (stereo partly shown), the IC50 is < 10 nM.

`COc1cc(CNC(=O)c2cc(C3=NNC(c4cccnc4)C3)nc(C)n2)ccc1F` (stereo not shown): the IC50 was in the range of 10 to 100 nM.

Take `CNC(=O)Cn1cc(C2CC(c3cc(C(=O)NCc4ccc(F)c(OC)c4)nc(C)n3)=NO2)ccc1=O` (stereo not shown): the IC50 is < 10 nM.

Regarding `COc1cc(CNC(=O)c2cc(C3=NO[C@H](c4ccn(C)c(=O)c4)C3)nc(C)n2)ccc1F`, the IC50 is < 10 nM.

(Values after patent US9029409B2, “Isoxazolines as therapeutic agents” (AbbVie Inc., priority 2011, dated 2015).)
